Source: the supplement of paper PMC10307832

How the values were obtained:
Experiment in all cases: relative viability (nuclei count vs DMSO), 5 days (fraction); higher = more cells survive
Shikonin + Lapatinib = compound: CC(C)=CC[C@@H](O)C1=CC(=O)c2c(O)ccc(O)c2C1=O [Shikonin] + CS(=O)(=O)CCNCc1ccc(-c2ccc3ncnc(Nc4ccc(OCc5cccc(F)c5)c(Cl)c4)c3c2)o1 [Lapatinib] (partner 2 µM)
Summary of the method: (§1)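 For relative viability, nuclei counts in treated wells were divided by those in vehicle wells. Lung cancer cell lines had been pin-tool dosed in 1536-well plates the day after seeding and cultured for 5 days, then fixed and stained in one step (final 0.05% Triton X-100, 1% formaldehyde, 1 ug/ml Hoechst) and imaged at 4×. Doses were one drug alone or a fixed anchor-drug dose plus five library-drug doses (not always all listed) in √10 steps, and values are duplicate-plate medians.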

Shikonin + Linsitinib = compound: CC(C)=CC[C@@H](O)C1=CC(=O)c2c(O)ccc(O)c2C1=O [Shikonin] + C[C@]1(O)C[C@@H](c2nc(-c3ccc4ccc(-c5ccccc5)nc4c3)c3c(N)nccn32)C1 [Linsitinib] (partner 1 µM)
Summary of the method: as §1

Shikonin + Olaparib = compound: CC(C)=CC[C@@H](O)C1=CC(=O)c2c(O)ccc(O)c2C1=O [Shikonin] + O=C(c1cc(Cc2n[nH]c(=O)c3ccccc23)ccc1F)N1CCN(C(=O)C2CC2)CC1 [Olaparib] (partner 8 µM)
Summary of the method: as §1

Shikonin + Tozasertib = compound: CC(C)=CC[C@@H](O)C1=CC(=O)c2c(O)ccc(O)c2C1=O [Shikonin] + Cc1cc(Nc2cc(N3CCN(C)CC3)nc(Sc3ccc(NC(=O)C4CC4)cc3)n2)n[nH]1 [Tozasertib] (partner 0.1 µM)
Summary of the method: as §1

Shikonin + Bortezomib = compound: CC(C)=CC[C@@H](O)C1=CC(=O)c2c(O)ccc(O)c2C1=O [Shikonin] + CC(C)C[C@H](NC(=O)[C@H](Cc1ccccc1)NC(=O)c1cnccn1)B(O)O [Bortezomib] (partner 0.002 µM)
Summary of the method: as §1

Cell Line	relative viability (Shikonin + Lapatinib; first compound 0.01 µM)	relative viability (Shikonin + Lapatinib; first compound 0.1 µM)	relative viability (Shikonin + Lapatinib; first compound 0.3162 µM)	relative viability (Shikonin + Lapatinib; first compound 1 µM)	relative viability (Shikonin + Linsitinib; first compound 0.01 µM)	relative viability (Shikonin + Linsitinib; first compound 0.1 µM)	relative viability (Shikonin + Linsitinib; first compound 0.3162 µM)	relative viability (Shikonin + Linsitinib; first compound 1 µM)	relative viability (Shikonin + Olaparib; first compound 0.01 µM)	relative viability (Shikonin + Olaparib; first compound 0.1 µM)	relative viability (Shikonin + Olaparib; first compound 0.3162 µM)	relative viability (Shikonin + Olaparib; first compound 1 µM)	relative viability (Shikonin + Tozasertib; first compound 0.01 µM)	relative viability (Shikonin + Tozasertib; first compound 0.1 µM)	relative viability (Shikonin + Tozasertib; first compound 0.3162 µM)	relative viability (Shikonin + Tozasertib; first compound 1 µM)	relative viability (Shikonin + Bortezomib; first compound 0.01 µM)	relative viability (Shikonin + Bortezomib; first compound 0.1 µM)	relative viability (Shikonin + Bortezomib; first compound 0.3162 µM)	relative viability (Shikonin + Bortezomib; first compound 1 µM)
CAL-12T	0.636	0.632	0.649	0.638	0.754	0.815	0.715	0.767	0.767	0.849	0.789	0.639	0.322	0.294	0.325	0.432	0.898	1.05	1.01	1.17
SW 1573	1.07	1.18	1.14	1.19	0.968	0.772	0.887	0.626	0.661	0.557	0.321	0.0736	0.194	0.24	0.188	0.0571	1.12	1.39	1.06	0.955
NCI-H1650	0.758	0.819	0.684	0.757					0.877	0.787	0.732	0.718	0.419	0.367	0.365	0.3	0.269	0.212	0.191	0.171
NCI-H2170	0.257	0.271	0.276	0.266					0.623	0.594	0.588	0.576	0.68	0.494	0.695	0.739				
NCI-H1299	1.01	1.09	0.986	0.936	1	1.03	0.82	0.659	0.969	0.986	0.976	0.832					1.03	1.03	1.05	1.03
EBC-1	0.19	0.191	0.213	0.217	0.984	0.857	0.727	1.02	0.764	0.698	0.758	0.602					0.604	0.48	0.644	0.526
NCI-H441					0.618	0.573	0.578	0.516	0.647	0.637	0.626	0.531	0.898	0.617	0.663	0.601	0.581	0.666	0.549	0.603
NCI-H1648									0.846		1.08	0.816	0.537	0.404	0.471	0.408				
NCI-H1792	0.922	1.06	0.968	1.09	0.511	0.388	0.658	0.661	0.263	0.314	0.463	0.427					1.14	0.858	1.12	1.04
ChaGo-K-1									0.425	0.438	0.387	0.462	0.212	0.232	0.236	0.248	0.957	1.35	0.911	1.53
LK-2	1.26	1.06	1.22	1.06	0.589	0.539	0.527	0.473	0.744	0.887	0.75	0.753	0.178	0.154	0.165	0.154				
NCI-H1944	0.89	0.894	0.789	0.933	1.2	1.44	1.35	1.27	0.428	0.408	0.414	0.387	0.241	0.22	0.29	0.257				
NCI-H1793	0.637	0.786	0.742	0.648	0.894	0.778	0.891	1.07	1.12	0.995	1	0.914	0.353	0.322	0.332	0.498				
A549	1.08	1.09	1.03	1.1	0.59	0.485	0.728	0.637	0.351	0.454	0.305	0.302								
NCI-H358	0.374	0.53	0.412	0.391	0.916	0.688	0.857	0.511	0.622	0.619	0.539	0.219	0.104	0.102	0.0979	0.0975				
NCI-H1563	0.87	1.08	0.923	0.779	1.27	1.29	1.23	0.892									0.824	0.909	0.757	0.607
NCI-H1395	0.924	1.26	0.923	0.895	1.08	1.4	0.878	1.05	0.407	0.455	0.416	0.427	0.794	0.842	0.806	0.763				
NCI-H522									0.645	0.614	0.597	0.491	0.599	0.555	0.615	0.572				
IA-LM	1.11		0.81	0.679	0.738	0.473	0.434	0.573	0.993	0.891	0.893	0.885					0.715	0.769	1.04	0.876
NCI-H1703	1.15	1.33	1.15	0.647	0.797	1.3	0.555	0.417	0.42	0.47	0.395	0.241					0.302	0.361	0.23	0.114
LCLC-103H					1.03	1.21	1.26	1.23	0.793	0.94	0.788	0.839	0.452	0.498	0.52	0.516	1.12	1.12	1.07	1.25
SW 900									1.05	0.776	0.917	0.717	0.546	0.458	0.527	0.536				
